Consider 24 molecules from patent US9572820B2, “Methods of treating autophagy-associated disorders and related pharmaceutical compositions, diagnostics, screening techniques and kits” (priority 2011, dated 2017).

Non-standard residues stand in square brackets, D forms with d. Residues, ends and D or L forms follow the SMILES beside them. Nle = CCCC[C@H](N)C(=O)O

One assay deals with IL-1α. The assay can be described thus: IL-1α release (ELISA) from LPS+IFN-γ stimulated BMM. Type of assay: cell-based, murine. For orientation: In an ELISA, binding on a coated surface is turned into a signal by an enzyme label.
In assay [1] the test system is LC3-GFP/RFP HeLa cells. The assay can be described thus: High-content imaging screen of LC3-GFP/RFP puncta (Cellomics ArrayScan). Type of assay: cell-based. Particulars: for modulation of autophagy (agonist/inducer or antagonist/inhibitor): LC3-GFP/RFP puncta per cell, 4 hours incubation, hit = 3 standard deviations above or below mean of negative control wells. The protocol:
FIG. 1X6. Use of Cellomics ArrayScan to detect induction of authophagy. […] Wells were scanned for number, area, or intensity of GFP+ or RFP+ puncta per cell using a Cellomics ArrayScan. Negative control (DMF-treated) wells were also measured. Each dot represents the data from a single well.
FIG. 2X6. Chemical library screen for modulation of autophagy. LC3-RFP/GFP HeLa cells were incubated with compounds from the chemical library for 4 hours, then fixed in 0.1% PFA. Wells were scanned using a Cellomics ArrayScan. […] Each dot represents the data from a single well.
FIG. 4X6. […] Wells were scanned using a Cellomics ArrayScan. […] Each dot represents the data from four separate wells, and error bars are standard deviation.
LC3 is a widely-used marker for autophagic vacuoles. HeLa cells stably transduced with LC3-GFP/RFP tandem construct generate fluorescent autophagic puncta, which are either green/yellow (early autophagosomes) or red (late autophagosomes fused with lysosomes, which degrades the GFP). By quantitating the number or total area of fluorescent puncta per cell, we can detect alterations in autophagic flux and regulation. […]
Using the above system, we performed two separate screens on a chemical library. This library contains 1,200 FDA-approved compounds, and represents wide functional and chemical diversity. This library spans four 384-well plates, with 64 wells on each plate with DMSO only as negative controls. […] A hit was defined as 3 standard deviations above or below the mean of the negative control wells on a given plate.

Assay [2] relates to LC3-GFP/RFP HeLa cells. The assay can be described thus: Chemical library screen in the presence of a suboptimal dose of pp242. Type of assay: cell-based. Particulars: suboptimal pp242 (~0.06 uM) plus library compound.
In the next assay the test system is IL-1β. The assay can be described thus: IL-1β secretion from LPS-pretreated BMMs (ELISA). Type of assay: cell-based, murine. Particulars: pp242 in full medium, 1 h. As for the experimental part:
FIG. 1X3. induction of autophagy enhances IL-1β secretion. (A) Atg5fl/fl Cre^− and Atg^5fl/fl Cre^+ bone marrow-derived macrophages (BMMs), pretreated overnight with 100 ng/ml LPS, were stimulated for 1 h with the inflammasome agonist nigericin ([…]) with (Starvation; EBSS) or without (Full; full medium) autophagic induction. Cell culture supernatants were assayed for murine IL-1β by ELISA. Data represent mean values±s.d. (nX3); *Po0.05. (B) LPS-pretreated Atg5fl/fl Cre^− and Atg^5fl/fl Cre^+ BMMs were stimulated with […] nigericin for 1 h in OptiMEM and the release of active caspase-1 and IL-1β was determined by immunoblotting. (C) As in (A), assayed for IL-18. Data represent mean values±s.d. (nX3); *Po0.05. (D) LPS-pretreated BMMs were exposed to alum ([…]) for 1 h with or without autophagic induction by starvation. Secreted IL-1β was measured as in (A). Data represent mean values±s.d. (nX3); *Po0.05. (E) LPS-pretreated BMMs were exposed to silica ([…]) for 1 h with or without autophagic induction by starvation. Secreted IL-1β was measured as in (A). Data represent mean values±s.d. (nX3); *Po0.05. (F) BMMs were transfected with scramble (Scr) control siRNA or siRNAs against ASC and NLRP3. After 48 h following transfection, cells were treated overnight with LPS and subjected to nigericin ([…]) and starvation for 1 h. Data represent mean values±s.d. (nX3); *Po0.05. (G) Immunoblot analysis of ASC and NLRP3 knockdowns. (H) BMMs were transfected with scramble
FIG. 2X3 Autophagic pathway progression promotes secretion of inflammasome substrates. (A, B) LPS-pretreated BMMs were treated with […] nigericin (Nig) and 100 nM bafilomycin A1 (Baf) with (Starvation) or without (Full) autophagic induction for 1 h and secreted IL-1β (A) and IL-18 (B) were measured. Data represent mean values+s.d. (nX3); *Po0.05. (C) LPS-pretreated BMMs were treated with […] of silica and 100 nM bafilomycin A1 (Baf) with (Starvation) or without (Full) autophagic induction for 1 h and secreted IL-1β were measured. Data represent mean values±s.d. (nX3); *Po0.05. (D) Colocalization of cathepsin B with the basal autophagic machinery factor LC3 and IL-1b. Fluorescence; LC3 (green, Alexa488), IL-1β (red, Alexa568), and cathepsin B (blue, Alexa633). BMMs from GFP-LC3 knockin mice were treated with LPS and then analysed for immunofluorescence. (E) Colocalization line tracing analysis from images in (D). (F) LPS-pretreated BMMs were treated with […] nigericin and cathepsin B inhibitor CA-074 Me […] , with (Starvation) or without (Full) autophagic induction, for 1 h and secreted IL-1β was measured. […] (G) LPS-pretreated Atg^5fl/fl Cr^+ and Atg^5fl/fl Cre^− BMMs were stimulated with […] nigericin for 1 h in OptiMEM and release of cathepsin B was determined by immunoblotting. […]

In a further assay the test system is naïve CD4 T cells. The assay can be described thus: In vitro Th17 polarization of naïve CD4 T cells (intracellular IL-17A, flow cytometry). It is filed as cell-based, mice. Particulars: with TGF-β 5 ng/ml and IL-6 20 ng/ml; IL-1α or IL-1β 20 ng/ml, day 4. For orientation: In flow cytometry, cells or beads pass a laser one at a time.

Consider `Cn1cnc(N)c2ncnc1-2` [3-methyladenine], for which the IL-1α secreted result in the assay on IL-1α (Atg5fl/fl LysM-Cre− BMM, LPS+IFN-γ, 12 h, 50 μg/ml rapamycin, 10 mM 3-MA or 100 nM Bafilomycin A1) was “significantly increased”.

As for `CCCC[C@@H](C=O)NC(=O)[C@H](CC(C)C)NC(=O)[C@H](CC(C)C)NC(C)=O` [ALLN] (Ac-Leu-Leu-[Nle]-aldehyde), the “excess IL-1α production” value in the assay on IL-1α (Atg5fl/fl LysM-Cre+ BMM, ALLN 100 μM) was “completely abrogated”.

Take `CC(C)COCC(CN(Cc1ccccc1)c1ccccc1)N1CCCC1` (stereo not shown) [bepridil]: the “modulation of autophagy (agonist/inducer or antagonist/inhibitor)” value in the assay on LC3-GFP/RFP HeLa cells [1] is given as “agonists or inducers of autophagy”.

Consider `CN(Cc1cc(Br)cc(Br)c1N)C1CCCCC1` [bromhexine], for which the “modulation of autophagy (agonist/inducer or antagonist/inhibitor)” value in the assay on LC3-GFP/RFP HeLa cells [1] is on record as “agonists or inducers of autophagy”.

Consider `CCN(CC)CCOc1ccc(C(=C(Cl)c2ccccc2)c2ccccc2)cc1.O=C(O)CC(O)(CC(=O)O)C(=O)O` [clomiphene citrate (Z,E)], for which the “modulation of autophagy (agonist/inducer or antagonist/inhibitor)” value in the assay with LC3-GFP/RFP HeLa cells [1] is reported as “agonists or inducers of autophagy”.

Consider `C[C@H]1O[C@@H](O[C@H]2[C@@H](O)C[C@H](O[C@H]3[C@@H](O)C[C@H](O[C@H]4CC[C@@]5(C)[C@H](CC[C@@H]6[C@@H]5C[C@@H](O)[C@]5(C)[C@@H](C7=CC(=O)OC7)CC[C@]65O)C4)O[C@@H]3C)O[C@@H]2C)C[C@H](O)[C@@H]1O` [digoxin], for which, in the assay on LC3-GFP/RFP HeLa cells [2], the “modulation of autophagy in combination with mTOR inhibitor (suboptimal pp242)” value is on record as “effective as autophagy modulators in combination”.

Regarding `CCCCc1cc2ccccc2c(OCCN(C)C)n1` [dimethisoquin], the “modulation of autophagy (agonist/inducer or antagonist/inhibitor)” value in the assay with LC3-GFP/RFP HeLa cells [1] is listed as “agonists or inducers of autophagy”.

As for `O=C(Nc1ccccc1)OCC(CN1CCCCC1)OC(=O)Nc1ccccc1` (stereo not shown) [diperodon], the “modulation of autophagy (agonist/inducer or antagonist/inhibitor)” value with LC3-GFP/RFP HeLa cells [1] is recorded as “agonists or inducers of autophagy”.

Take `CNCC(O)c1ccc(OC(=O)C(C)(C)C)c(OC(=O)C(C)(C)C)c1` (stereo not shown) [dipivefrin]: in the assay with LC3-GFP/RFP HeLa cells [1], the “modulation of autophagy (agonist/inducer or antagonist/inhibitor)” value is reported as “agonists or inducers of autophagy”.

Regarding `COC(=O)Nc1nc2cc(C(=O)c3ccc(F)cc3)ccc2[nH]1` [flubendazole], the “modulation of autophagy (agonist/inducer or antagonist/inhibitor)” value with LC3-GFP/RFP HeLa cells [1] is “agonists or inducers of autophagy”.

As to `COCCCC/C(=N\OCCN)c1ccc(C(F)(F)F)cc1` [fluvoxamine], the “modulation of autophagy (agonist/inducer or antagonist/inhibitor)” value in the assay on LC3-GFP/RFP HeLa cells [1] is given as “agonists or inducers of autophagy”.

In the case of `Oc1c(Cl)cc(Cl)c(Cl)c1Cc1c(O)c(Cl)cc(Cl)c1Cl` [hexachlorophene], the “modulation of autophagy (agonist/inducer or antagonist/inhibitor)” value in the assay with LC3-GFP/RFP HeLa cells [1] is on record as “agonists or inducers of autophagy”.

Regarding `CCCCC(CC)CN1CN(CC(CC)CCCC)CC(C)(N)C1` (stereo not shown) [hexetidine], in the assay with LC3-GFP/RFP HeLa cells [2], the “modulation of autophagy in combination with mTOR inhibitor (suboptimal pp242)” value was “effective as autophagy modulators in combination”.

As to `CC12CC3CC(C)(C1)CC(N)(C3)C2` [memantine], the “modulation of autophagy (agonist/inducer or antagonist/inhibitor)” value with LC3-GFP/RFP HeLa cells [1] is listed as “agonists or inducers of autophagy”.

For `CN1CCCC(CC2c3ccccc3Sc3ccccc32)C1` (stereo not shown) [metixene], the “modulation of autophagy (agonist/inducer or antagonist/inhibitor)” value in the assay with LC3-GFP/RFP HeLa cells [1] was “agonists or inducers of autophagy”.

As for `CNCCC=C1c2ccccc2C=Cc2ccccc21` [norcyclobenzaprine], the “modulation of autophagy (agonist/inducer or antagonist/inhibitor)” value in the assay on LC3-GFP/RFP HeLa cells [1] is recorded as “agonists or inducers of autophagy”.

For `CNCCC=C1c2ccccc2CCc2ccccc21` [nortriptyline], the “modulation of autophagy (agonist/inducer or antagonist/inhibitor)” value in the assay with LC3-GFP/RFP HeLa cells [1] was “agonists or inducers of autophagy”.

Take `CC(=O)[O-].[Hg+][c]1ccccc1` [phenylmercuric acetate]: the “modulation of autophagy (agonist/inducer or antagonist/inhibitor)” value with LC3-GFP/RFP HeLa cells [1] is “antagonists or inhibitors of autophagy”.

Take `CC(C)n1nc(-c2cc3cc(O)ccc3[nH]2)c2c(N)ncnc21` [pp242]: the “suboptimal dose that did not induce autophagy” value with LC3-GFP/RFP HeLa cells [1] (from pp242 dose response) is roughly 0.06 µM. Further, the “secretion of IL-1β” value in the assay on IL-1β was “increased secretion of IL-1β”.

Regarding `CC[N+](C)(CC)CCC[n+]1c(-c2ccccc2)c2cc(N)ccc2c2ccc(N)cc21.[I-].[I-]` [propidium iodide], the “modulation of autophagy (agonist/inducer or antagonist/inhibitor)” value with LC3-GFP/RFP HeLa cells [1] is recorded as “agonists or inducers of autophagy”.

In the case of `O=C1NCCN1CCN1CCC(c2cn(-c3ccc(F)cc3)c3ccc(Cl)cc23)CC1` [sertindole], in the assay on LC3-GFP/RFP HeLa cells [2], the “modulation of autophagy in combination with mTOR inhibitor (suboptimal pp242)” value is “effective as autophagy modulators in combination”.

On to `N#Cc1c(Cl)c(Cl)c(Cl)c(C#N)c1Cl` [tetrachlorisophthalonitrile], for which the “modulation of autophagy (agonist/inducer or antagonist/inhibitor)” value in the assay on LC3-GFP/RFP HeLa cells [1] is given as “antagonists or inhibitors of autophagy”.

Take `Cc1cccc(C)c1N=C1NCCCS1` [xylazine]: in the assay on LC3-GFP/RFP HeLa cells [2], the “modulation of autophagy in combination with mTOR inhibitor (suboptimal pp242)” value was “effective as autophagy modulators in combination”.

B1: IL-1α: cytokine used at 20 ng/ml to promote Th17 differentiation (protein, UniProt P01583 113-271, looked up)
Interleukin-1 alpha: SAPFSFLSNVKYNFMRIIKYEFILNDALNQSIIRANDQYLTAAALHNLDEAVKFDMGAYKSSKDDAKITVILRISKTQLYVTAQDEDQPVLLKEMPEIPKTITGSETNLLFFWETHGTKNYFTSVAHPNLFIATKQDYWVCLAGGPPSITDFQILENQA
Turning to B1, the “intracellular levels of IL-17A” value with naïve CD4 T cells is listed as “elevated”.
